{
  "source": "patent US20200022386A1",
  "about": "“METHOD OF PREPARATION OF CA[…]” (PHARCON INC., priority 2018, published 2020)",
  "experiment": "Solubility of cannabinoids / cannabis extract in ethanol",
  "assay_type": "physicochemical",
  "conditions": "organic solvent or mixture, room temperature, ethyl alcohol (solvent named)",
  "from_the_text": "Cannabinoids have extremely low water solubility and relatively high solubility in oils and polar organic solvents such as ethanol and propylene glycol. Micro- and nanoemulsions or liposomal formulations where cannabinoids incorporated into lipid phase of the colloidal dispersion can be efficiently used for preparation of cannabis loaded products. Nevertheless, for preparation of beverages with high content of biologically active cannabis components may be complicated since solubility in the oil phase may not be high enough to provide the desired concentration of cannabinoids in the prepared beverage while keeping the product stable and palatable. Additionally, terpenes presented in extract of cannabis, visibly improve solubility of cannabinoids while pure CBD, THC or other cannabinoids have much lower solubility. […] However, since cannabis terpenes are often associated with acrid and unpleasant taste and flavor, it is preferable to use purified cannabinoids with a potency (purity) of 90-100%.\nPractically all proposed SNEDS formulations of cannabinoids have oil phase consisting of food oils, mainly mono-di or triglycerides, such as medium chain triglycerides (MCT oil, coconut oil), fish oil, soy oil, olive oil, acetylated mono-and diglycerides, etc. The food oils have excellent safety profile and can provide a reasonable solubility of cannabinoids. […]",
  "data": [
    {"compound": "C=C(C)[C@@H]1CCC(C)=C[C@H]1c1c(O)cc(CCCCC)cc1O", "note": "[CBD, Cannabidiol]", "values": [
      {"measurement": "solubility", "result": "25 to 36", "unit": "mg/mL"}
    ]}
  ]
}
